# Target: T1, Broad substrate specificity ATP-binding cassette transporter ABCG2 (Homo sapiens, UniProt Q9UNQ0)
# T1 sequence (Q9UNQ0 whole entry): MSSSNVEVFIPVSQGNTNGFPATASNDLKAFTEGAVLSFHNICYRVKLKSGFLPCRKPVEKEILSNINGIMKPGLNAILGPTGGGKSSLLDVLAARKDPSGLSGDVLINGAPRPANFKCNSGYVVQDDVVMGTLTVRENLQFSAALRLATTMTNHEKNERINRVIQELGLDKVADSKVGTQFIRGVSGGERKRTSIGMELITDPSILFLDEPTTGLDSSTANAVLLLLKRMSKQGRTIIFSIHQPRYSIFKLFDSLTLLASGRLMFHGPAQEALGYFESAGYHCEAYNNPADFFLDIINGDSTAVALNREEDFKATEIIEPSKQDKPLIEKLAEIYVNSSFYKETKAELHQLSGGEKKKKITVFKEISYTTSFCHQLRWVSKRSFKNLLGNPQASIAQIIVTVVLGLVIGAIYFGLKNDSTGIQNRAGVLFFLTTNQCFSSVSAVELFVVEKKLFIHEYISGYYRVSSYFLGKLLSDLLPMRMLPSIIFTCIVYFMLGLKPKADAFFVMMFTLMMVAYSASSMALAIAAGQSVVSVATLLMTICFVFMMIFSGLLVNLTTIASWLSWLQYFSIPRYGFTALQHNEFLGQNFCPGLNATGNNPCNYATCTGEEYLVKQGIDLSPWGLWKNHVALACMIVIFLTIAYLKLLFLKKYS
# Assay: TP_TRANSPORTER: efflux in BCRP-expressing MCF-7 cells
# Assay type: functional, cell-based
# Conditions: mcf7
smiles,measurement,value
CCOc1ccc(-c2nc3cc(-c4nc5cc(N6CCN(C)CC6)ccc5[nH]4)ccc3[nH]2)cc1,Activity,substrate [+]

# — ChEMBL document CHEMBL2073874, “The multidrug resistance transporter ABCG2 (breast cancer resistance protein 1) effluxes Hoechst 33342 and is overexpressed in hematopoietic stem cells” (Clin Cancer Res, 2002)
